This note sets out measurements from patent US7429585B2, “Phenyl-piperazine methanone derivatives, substituted by heterocyclic groups” (Hoffmann-La Roche, priority 2004, dated 2008).

The structures appear in SMILES notation.

In this assay the target is T1, mGlyT-1b (Mus musculus, UniProt P28571).
T1 construct: host or cells: Flp-in-CHO
T1 sequence (P28571 1-651 isoform P28571-2): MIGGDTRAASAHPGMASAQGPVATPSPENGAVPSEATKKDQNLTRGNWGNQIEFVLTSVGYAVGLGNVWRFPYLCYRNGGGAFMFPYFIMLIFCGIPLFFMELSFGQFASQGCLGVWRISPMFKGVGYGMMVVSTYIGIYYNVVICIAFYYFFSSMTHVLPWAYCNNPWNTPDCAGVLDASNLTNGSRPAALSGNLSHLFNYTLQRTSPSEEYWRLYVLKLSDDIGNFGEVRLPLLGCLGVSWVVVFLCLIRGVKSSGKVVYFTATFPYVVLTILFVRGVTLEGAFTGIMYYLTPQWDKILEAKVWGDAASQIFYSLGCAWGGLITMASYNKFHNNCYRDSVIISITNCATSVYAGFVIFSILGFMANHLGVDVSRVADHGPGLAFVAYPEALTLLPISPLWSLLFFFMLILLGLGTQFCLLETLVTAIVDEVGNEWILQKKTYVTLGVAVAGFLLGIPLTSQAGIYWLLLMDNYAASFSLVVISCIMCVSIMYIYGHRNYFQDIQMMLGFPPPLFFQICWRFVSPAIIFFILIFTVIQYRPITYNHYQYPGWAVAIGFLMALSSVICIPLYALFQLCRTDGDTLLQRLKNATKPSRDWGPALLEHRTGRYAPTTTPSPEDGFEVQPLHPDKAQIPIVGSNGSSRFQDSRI
Briefly: Glycine uptake inhibition assay (mGlyT-1b). The settings on record: inhibition of [3H]-glycine uptake in Flp-in-CHO cells transfected with mGlyT-1b cDNA. In kind it is cell-based. On the procedure:
DMEM complete medium: Nutrient mixture F-12 (Gibco Life-technologies), fetal bovine serum (FBS) 5%, (Gibco life technologies), Penicillin/Streptomycin 1% (Gibco life technologies), Hygromycin 0.6 mg/ml (Gibco life technologies), Glutamine 1 mM Gibco life technologies)
Uptake buffer (UB): 150 mM NaCl, 10 mM Hepes-Tris, pH 7.4, 1 mM CaCl2, 2.5 mM KCl, 2.5 mM MgSO4, 10 mM (+) D-glucose. Flp-in™-CHO (Invitrogen Cat n° R758-07)cells stably transfected with mGlyT1b cDNA.
Glycine Uptake Inhibition Assay (mGlyT-1b)
On day 1 mammalian cells, (Flp-in™-CHO), transfected with mGlyT-1b cDNA, were plated at the density of 40,000 cells/well in complex F-12 medium, without hygromycin in 96-well culture plates. On day 2, the medium was aspirated and the cells were washed twice with uptake buffer (UB). The cells were then incubated for 20 min at 22° C. with either (i) no potential competitor, (ii) 10 mM non-radioactive glycine, (iii) a concentration of a potential inhibitor. A range of concentrations of the potential inhibitor was used to generate data for calculating the concentration of inhibitor resulting in 50% of the effect (e.g. IC50, the concentration of the competitor inhibiting glycine uptake of 50%). A solution was then immediately added containing [^3H]-glycine 60 nM (11-16 Ci/mmol) and 25 μM non-radioactive glycine. The plates were incubated with gentle shaking and the reaction was stopped by aspiration of the mixture and washing (three times) with ice-cold UB. The cells were lysed with scintillation liquid, shaken 3 hours and the radioactivity in the cells was counted using a scintillation counter.
As usually defined, the IC50 is the point on the concentration scale where inhibition reaches its midpoint. A lower IC50 goes with greater potency in that assay. As to `CC(C)Oc1ccc(S(C)(=O)=O)cc1C(=O)N1CCN(c2nc3ccc([N+](=O)[O-])cc3s2)CC1` [Example 1.9, (2-Isopropoxy-5-methanesulfonyl-phenyl)-[4-(6-nitro-benzothiazol-2-yl)-piperazin-1-yl]-methanone], the IC50 is 206 nM. `CS(=O)(=O)c1ccc(OC2CCCC2)c(C(=O)N2CCN(c3cnc4ccccc4n3)CC2)c1` [Example 1.25, (2-Cyclopentyloxy-5-methanesulfonyl-phenyl)-(4-quinoxalin-2-yl-piperazin-1-yl)-methanone] registered a 50% inhibitory concentration (IC50) of 67 nM.

`O=C(c1cc([N+](=O)[O-])ccc1N1CCOCC1)N1CCN(c2nc3ccc(Cl)cc3s2)CC1` [Example 1.1, [4-(6-Chloro-benzothiazol-2-yl)-piperazin-1-yl]-(2-morpholin-4-yl-5-nitro-phenyl) -methanone] yielded an IC50 of 271 nM.

As to `CC(C)COc1ccc(S(C)(=O)=O)cc1C(=O)N1CCN(c2nc3ccccc3o2)CC1` [Example 1.5, (4-Benzoxazol-2-yl-piperazin-1-yl)-(2-isobutoxy-5-methanesulfonyl-phenyl)-methanone], it took 144 nM to reach half-maximal inhibition (IC50). For `CS(=O)(=O)c1ccc(OC2CCCC2)c(C(=O)N2CCN(c3nc4ccccc4o3)CC2)c1` [Example 1.4, (4-Benzoxazol-2-yl-piperazin-1-yl)-(2-cyclopentyloxy-5-methanesulfonyl-phenyl)-methanone] the value was 97 nM.

`CS(=O)(=O)c1ccc(OCC2CC2)c(C(=O)N2CCN(c3nc4ccc(Cl)cc4s3)CC2)c1` [Example 1.39, [4-(6-Chloro-benzothiazol-2-yl)-piperazin-1-yl]-(2-cyclopropylmethoxy-5-methanesulfonyl-phenyl)-methanone] came in with a concentration for half-maximal inhibition (IC50) of 230 nM. For `CC(C)Oc1ccc(S(C)(=O)=O)cc1C(=O)N1CCN(c2nsc3ccccc23)CC1` [Example 1.29, (4-Benzo [d]isothiazol-3-yl-piperazin-1-yl)-(2-isopropoxy-5-methanesulfonyl-phenyl) -methanone], it took 500 nM to reach half-maximal inhibition (IC50). For `CS(=O)(=O)c1ccc(OC2CCCC2)c(C(=O)N2CCN(c3ccc4cc(Cl)ccc4n3)CC2)c1` [Example 1.22, [4-(6-Chloro-quinolin-2-yl)-piperazin-1-yl]-(2-cyclopentyloxy-5-methanesulfonyl-phenyl)-methanone] the value was 399 nM; for `CC(C)COc1ccc(S(C)(=O)=O)cc1C(=O)N1CCN(c2ccc3ccccc3n2)CC1` [Example 1.19, (2-Isobutoxy-5-methanesulfonyl-phenyl)-(4-quinolin-2-yl-piperazin-1-yl)-methanone], 78 nM.

For `COc1cccc2sc(N3CCN(C(=O)c4cc(S(C)(=O)=O)ccc4OC(C)C)CC3)nc12` [Example 1.11, (2-Isopropoxy-5-methanesulfonyl-phenyl)-[4-(4-methoxy-benzothiazol-2-yl)-piperazin-1-yl]-methanone], it took 148 nM to reach half-maximal inhibition (IC50). Then `O=C(c1cc([N+](=O)[O-])ccc1N1CCOCC1)N1CCN(c2nsc3ccccc23)CC1` [Example 1.31, (4-Benzo[d]isothiazol-3-yl-piperazin-1-yl)-(2-morpholin-4-yl-5-nitro-phenyl) -methanone], with 467 nM. As for `Cc1nc2cc(N3CCN(C(=O)c4cc(S(C)(=O)=O)ccc4OCC(C)C)CC3)ccc2s1` [Example 1.17, (2-Isobutoxy-5-methanesulfonyl-phenyl)-[4-(2-methyl-benzothiazol-5-yl)-piperazin-1-yl]-methanone], the midpoint of inhibition, the IC50, lay at 440 nM.

Take `CC(C)Oc1ccc(S(C)(=O)=O)cc1C(=O)N1CCN(c2nc3ccc(Cl)cc3s2)CC1` [Example 1.2, [4-(6-Chloro-benzothiazol-2-yl)-piperazin-1-yl]-(2-isopropoxy-5-methanesulfonyl-phenyl)-methanone]: the IC50 is 398 nM. For `C[C@H](Oc1ccc(S(C)(=O)=O)cc1C(=O)N1CCN(c2nsc3ccccc23)CC1)C(F)(F)F` [Example 1.33, (4-Benzo[d]isothiazol-3-yl-piperazin-1-yl)-[5-methanesulfonyl-2-((S)-2,2,2-trifluoro-1-methyl-ethoxy)-phenyl]-methanone] the value was 55 nM. For `CCOc1ccc2nc(N3CCN(C(=O)c4cc(S(C)(=O)=O)ccc4OC(C)C)CC3)sc2c1` [Example 1.15, [4-(6-Ethoxy-benzothiazol-2-yl)-piperazin-1-yl]-(2-isopropoxy-5-methanesulfonyl-phenyl)-methanone] the value was 339 nM; for `C[C@H](Oc1ccc(S(C)(=O)=O)cc1C(=O)N1CCN(c2nc3ccc(Cl)cc3s2)CC1)C(F)(F)F` [Example 1.40, [4-(6-Chloro-benzothiazol-2-yl)-piperazin-1-yl]-[5-methanesulfonyl-2-((S)-2,2,2-trifluoro-1methyl-ethoxy)-phenyl]-methanone], 39 nM; for `CC(C)COc1ccc(S(C)(=O)=O)cc1C(=O)N1CCN(c2cnc3ccccc3c2)CC1` [Example 1.27, (2-Isobutoxy-5-methanesulfonyl-phenyl)-(4-quinolin-3-yl-piperazin-1-yl)-methanone], 82 nM.

In the case of `COc1ccc2nc(N3CCN(C(=O)c4cc(S(C)(=O)=O)ccc4OC(C)C)CC3)sc2c1` [Example 1.8, (2-Isopropoxy-5-methanesulfonyl-phenyl)-[4-(6-methoxy-benzothiazol-2-yl)-piperazin-1-yl]-methanone], half-maximal inhibition (IC50) was put at 174 nM. Compound `CC(C)COc1ccc(S(C)(=O)=O)cc1C(=O)N1CCN(c2cnc3ccccc3n2)CC1` [Example 1.23, (2-Isobutoxy-5-methanesulfonyl-phenyl)-(4-quinoxalin-2-yl-piperazin-1-yl)-methanone] displayed an IC50 of 167 nM. Then `CC(C)Oc1ccc(S(C)(=O)=O)cc1C(=O)N1CCN(c2nc3c(O)cccc3s2)CC1` [Example 1.13, [4-(4-Hydroxy-benzothiazol-2-yl)-piperazin-1-yl]-(2-isopropoxy-5-methanesulfonyl-phenyl)-methanone], with 158 nM; and `CS(=O)(=O)c1ccc(OC2CCCC2)c(C(=O)N2CCN(c3cnc4ccccc4c3)CC2)c1` [Example 1.28, (2-Cyclopentyloxy-5-methanesulfonyl-phenyl)-(4-quinolin-3-yl-piperazin-1-yl)-methanone], with 149 nM; and `CC(C)Oc1ccc(S(C)(=O)=O)cc1C(=O)N1CCN(c2nc3c([N+](=O)[O-])cccc3s2)CC1` [Example 1.12, (2-Isopropoxy-5-methanesulfonyl-phenyl)-[4-(4-nitro-benzothiazol-2-yl)-piperazin-1-yl]-methanone], with 375 nM. In turn, `CC(C)Oc1ccc(S(C)(=O)=O)cc1C(=O)N1CCN(c2nc3cc(Cl)ccc3s2)CC1` [Example 1.14, [4-(5-Chloro-benzothiazol-2-yl)-piperazin-1-yl]-(2-isopropoxy-5-methanesulfonyl-phenyl)-methanone] came in with an IC50 of 218 nM. Then `CC(C)Oc1ccc(S(C)(=O)=O)cc1C(=O)N1CCN(c2cnc3ccccc3n2)CC1` [Example 1.24, (2-Isopropoxy-5-methanesulfonyl-phenyl)-(4-quinoxalin-2-yl-piperazin-1-yl)-methanone], with 287 nM.
